Test results taken from the NIST ThermoML archive (doi:10.1016/j.fluid.2013.12.008).

How the values were obtained:
[1] = xn = mol fraction of the nth substance listed; conditions: 101 kPa, Liquid; for viscosity: Falling or rolling sphere viscometry; for mass density: Vibrating tube method
[2] = 101 kPa, Liquid; for viscosity: Falling or rolling sphere viscometry; for mass density: Vibrating tube method

CCn1cc[n+](C)c1.N#CN=C=[N-] [1-ethyl-3-methylimidazolium dicyanamide] + CCn1cc[n+](C)c1.N#C[C-](C#N)C#N
[1], x2 = 0
Conditions | mass density [kg/m3] | viscosity [mPa·s]
293.15 K | 1104.6 | 17.54
303.15 K | 1098 | 13.11
313.15 K | 1091.4 | 10.17
323.15 K | 1084.9 | 8.13
333.15 K | 1078.5 | 6.66
343.15 K | 1072.1 | 5.58
353.15 K | 1065.8 | 4.75

CCn1cc[n+](C)c1.N#CN=C=[N-] [1-ethyl-3-methylimidazolium dicyanamide]
[2]
Conditions | mass density [kg/m3] | viscosity [mPa·s]
293.15 K | 1104.6 | 17.54
303.15 K | 1098 | 13.11
313.15 K | 1091.4 | 10.17
323.15 K | 1084.9 | 8.13
333.15 K | 1078.5 | 6.66
343.15 K | 1072.1 | 5.58
353.15 K | 1065.8 | 4.75

CCn1cc[n+](C)c1.N#C[C-](C#N)C#N [1-ethyl-3-methyl-1H-imidazolium tricyanomethanide]
[2]
Conditions | mass density [kg/m3] | viscosity [mPa·s]
293.15 K | 1085.2 | 17.72
303.15 K | 1078.1 | 12.88
313.15 K | 1071.1 | 9.8
323.15 K | 1064.1 | 7.73
333.15 K | 1057.2 | 5.93
343.15 K | 1050.4 | 4.91
353.15 K | 1043.6 | 4.15

CCn1cc[n+](C)c1.N#C[C-](C#N)C#N [1-ethyl-3-methyl-1H-imidazolium tricyanomethanide] + CCn1cc[n+](C)c1.N#CN=C=[N-]
[1]
Conditions | mass density, x1 = 0.2 [kg/m3] | mass density, x1 = 0.4 [kg/m3] | mass density, x1 = 0.6 [kg/m3] | mass density, x1 = 0.8 [kg/m3] | mass density, x1 = 1 [kg/m3] | viscosity, x1 = 0.2 [mPa·s] | viscosity, x1 = 0.4 [mPa·s] | viscosity, x1 = 0.6 [mPa·s] | viscosity, x1 = 0.8 [mPa·s] | viscosity, x1 = 1 [mPa·s]
293.15 K | 1099.9 | 1095.8 | 1091.9 | 1088.4 | 1085.2 | 17.55 | 17.59 | 17.6 | 17.64 | 17.72
303.15 K | 1093.2 | 1088.9 | 1085 | 1081.4 | 1078.1 | 13.05 | 13.02 | 13.01 | 12.89 | 12.88
313.15 K | 1086.5 | 1082.2 | 1078.1 | 1074.5 | 1071.1 | 10.12 | 10.05 | 10.02 | 9.89 | 9.8
323.15 K | 1079.9 | 1075.5 | 1071.3 | 1067.6 | 1064.1 | 7.92 | 7.84 | 7.8 | 7.77 | 7.73
333.15 K | 1073.4 | 1068.8 | 1064.6 | 1060.8 | 1057.2 | 6.26 | 6.22 | 6.19 | 6.15 | 5.93
343.15 K | 1066.9 | 1062.3 | 1057.9 | 1054.1 | 1050.4 | 5.23 | 5.21 | 5.2 | 5.1 | 4.91
353.15 K | 1060.5 | 1055.7 | 1051.3 | 1047.4 | 1043.6 | 4.44 | 4.42 | 4.38 | 4.32 | 4.15
